≈ marks a conversion by molar mass, not a printed value.
Columns and labels:
adult liver flukes = conditions: ruminants, doses tolerated by the host animal; cited from earlier work
[1] = test system: benzimidazole-resistant nematodes; conditions: ruminants, doses tolerated by the host animal; cited from earlier work
Lucilia cuprina = experiment: F.5. Action against Lucilia cuprina; format: in vivo; conditions: test solution comprising 16 ppm, evaluation after 96 hours
Procedure: F.5. Action against Lucilia cuprina Freshly deposited eggs of the blow fly species Lucilia cuprina are introduced in small portions (30-50 eggs) into test tubes in which 4 ml of nutrient medium have previously been mixed with 1 ml of test solution comprising 16 ppm of the test compound. After inoculation of the culture medium the test tubes are closed with a cotton wool plug and incubated in an incubator at 30° C. for four days. By this time, larvae approximately 1 cm long (stage 3) have developed in the untreated medium. If a compound is active the larvae are at this time either dead or clearly retarded. Evaluation is effected after 96 hours.

Rhizopus arrhizus = experiment: Antibiotic activity, agar diffusion test / series dilution test; format: cell-based
Procedure: (§1) The antibiotic activity is determined by means of an agar diffusion test with reference to the inhibiting areola diameter, or from the culture density in a series dilution test.

Mucor hiemalis = experiment: as above; format: cell-based
Procedure: as §1

Pythium debaryanum = experiment: as above; format: cell-based
Procedure: as §1

Gibberella fujikuroi = experiment: as above; format: cell-based
Procedure: as §1

Botrytis cinerea = experiment: as above; format: cell-based
Procedure: as §1

Fasciola hepatica = experiment: F.6. Trial with sheep infested with Fasciola hepatica; format: in vivo; conditions: doses of less than 50 mg of active ingredient/kg of body weight, single dose
Procedure: F.6. Trial with sheep infested with Fasciola hepatica
The active ingredient is administered in the form of a suspension using a stomach probe or by intraruminal injection to sheep that have previously been artificially infested with Fasciola hepatica. 3 animals am used for each dose per trial. Each animal is treated only once with a single dose.
(§2) A first evaluation is made by comparing the number of worm eggs excreted in the faeces of the sheep before and after treatment.
Three to four weeks after treatment the sheep are sacrificed and dissected. The evaluation is carried out by counting the liver flukes remaining in the gall-bladder ducts after treatment. Sheep simultaneously and similarly infested but untreated are used as a control or comparison. The difference in the number of liver flukes counted in the two groups gives the degree of effectiveness of the test compound.

Heliothis virescens = experiment: F.7. Ovicidal/larvicidal action against Heliothis virescens; format: in vivo; conditions: 400 ppm, egg deposits on cotton, 8 days
Procedure: F.7. Ovicidal/larvicidal action against Heliothis virescens
Egg deposits of Heliothis virescens on cotton are sprayed with an aqueous emulsion comprising 400 ppm of test compound. 8 days later, the percentage of eggs which have hatched and the survival rate of the caterpillars are evaluated in comparison with untreated controls (% reduction in the population).

[2] = test system: Heliothis virescens caterpillars; experiment: F.10. Action against Heliothis virescens caterpillars; format: in vivo; conditions: 400 ppm, soybean plants, first-stage caterpillars, 6 days
Procedure: F. 10. Action against Heliothis virescens caterpillars
(§3) Young soybean plants are sprayed with an aqueous emulsion comprising 400 ppm of the test compound. After the spray coating has dried, the soybean plants are populated with 10 Heliothis virescens caterpillars in the first stage and placed in a plastics container. Evaluation is made 6 days later. The percentage reduction in the population or the percentage reduction in feeding damage(% activity) is determined by comparing the number of dead caterpillars and the feeding damage on the treated plants with that on untreated plants.

Aphis craccivora = experiment: F.8. Action against Aphis craccivora; format: in vivo; conditions: pea seedlings, 3 and 6 days, read-out: activity (percentage reduction in the population)
Procedure: F.8. Action against Aphis craccivora
Pea seedlings are infested with Aphis craccivora and then sprayed with a spray mixture comprising 400 ppm of the test compound, and incubated at 20° C. Evaluation is made 3 and 6 days later. The percentage reduction in the population (% activity) is determined by comparing the number of dead aphids on the treated plants with that on untreated plants.

[3] = test system: Plutella xylostella caterpillars; experiment: F.11. Action against Plutella xylostella caterpillars; format: in vivo; conditions: cabbage plants, third-stage caterpillars, 3 days
Procedure: F. 11. Action against Plutella xylostella caterpillars
as §3, with “cabbage” for “soybean”, “Plutella xylostella” for “Heliothis virescens”, “third” for “first”, “3” for “6”, “damage (%” for “damage(%”, “plants. […] The activity is over 80%.” for “plants.”

Dermanyssus gallinae = experiment: F.3. Action against Dermanyssus gallinae; format: in vivo; conditions: 72 h, after 3 days, read-out: activity (mortality of the mites)
Procedure: F.3. Action against Dermanyssus gallinae
2 to 3 ml of a solution comprising 100 ppm of test compound, and approximately 200 mites at various stages of development, are placed in a glass container that is open at the top. The container is then closed with a cotton wool plug, shaken for 10 minutes until the mites are completely wetted, and then inverted for a short time so that the remaining test solution can be absorbed by the cotton wool. After 3 days, the mortality of the mites is determined as a percentage by counting the number of dead individuals.

[4] = test system: nematodes such as Haemonchus contortus and Trichostrongylus colubriformis; experiment: F.1. Trial with sheep infested with nematodes; format: in vivo; conditions: single dose
Procedure: F.1. Trial with sheep infested with nematodes such as Haemonchus contortus and Trichostrongylus colubriformis
Thiangazole is administered in the form of a suspension using a stomach probe or by intraruminal injection to sheep that have previously been artificially infested with nematodes, such as Haemonchus contortus and Trichostrongylus colubriformis. 1 to 3 animals are used for each dose per trial. Each sheep is treated only once with a single dose.
as §2
Seven to ten days after treatment the sheep are sacrificed and dissected. The evaluation is carded out by counting the worms remaining in the intestine after the treatment. Sheep simultaneously and similarly infested but untreated are used as a control or comparison.

Lucille sericata = experiment: F.4. Action against Lucille sericata; format: in vivo; conditions: 10-0.01 ppm, eggs/larvae, 30° C., four days
Procedure: F.4. Action against Lucille sericata
Freshly deposited eggs of the blow fly Lucille sericata are introduced in small portions (30-50 eggs) into test tubes in which 4 ml of nutrient medium have previously been mixed with 1 ml of test solution in the intermediate dilution required for the final concentration. After inoculation of the culture medium the test tubes are closed with a cotton wool plug and incubated in an incubator at 30° C. for four days. By this time, larvae approximately 1 cm long (stage 3) have developed in the medium that, for comparison, has not been treated. If a compound is active, the larvae are at this time either dead or moribund and clearly retarded. The test is carried out simultaneously at concentrations of from 10-0.01 ppm. The activity is measured at the lowest fully active concentration (LC 100). The test includes both compounds that are effective by contact and those that are effective as an ingested poison. Repellence is also taken into account, since the larvae migrate from the medium and starve.

[5] = test system: cestodes such as Moniezia benedeni; experiment: F.2. Trial with sheep infested with cestodes; format: in vivo; conditions: dose of less than 20 mg/kg body weight, single dose
Procedure: F.2. Trial with sheep infested wtih cestodes such as Moniezia benedeni
The active ingredient is administered in the form of a suspension using a stomach probe or by intraruminal injection to sheep that have previously been artificially infested with cestodes, such as Moniezia benedeni. 1 to 3 animals are used for each dose per trial. Each sheep is treated only once with a single dose. Seven to ten days after treatment the sheep are sacrificed and dissected. The evaluation is carded out by counting the worms remaining in the intestine after the treatment. Sheep simultaneously and similarly infested but untreated are used as a control or comparison. In this test thiangazole effects an approximately 90% reduction in cestode infestation at a dose of less than 20 mg/kg body weight.

Ustilago maydis = experiment: MIC, agar diffusion test / series dilution test; format: cell-based; conditions: Mycosarcoma maydis
Procedure: as §1

[6] = test system: sub-mitochondrial particles of deer heart; experiment: NADH oxidation in sub-mitochondrial particles; format: biochemical
Tetranychus urticae = experiment: F.9 Action against Tetranychus urticae; format: in vivo; conditions: 144 h, bean plants, 6 days at 25° C., read-out: activity (percentage reduction in the population)
Procedure: F.9 Action against Tetranychus urticae
Young bean plants are populated with a mixed population of Tetranychus urticae and sprayed one day later with an aqueous emulsion comprising 400 ppm of the test compound. The plants are then incubated for 6 days at 25° C. and then evaluated. The percentage reduction in the population (% activity) is determined by comparing the number of dead eggs, larvae and adults on the treated plants with that on untreated plants.

For `CCCSc1ccc2nc(NC(=O)OC)[nH]c2c1` [Albendazole], the anthelmintic activity (adult liver flukes) is listed as “totally inadequate” and the anthelmintic activity [1] is listed as “totally inadequate”.
In the case of `CNC(=O)c1nc(C2(C)CSC(C3(C)CSC(C4(C)CSC(C=Cc5ccccc5)=N4)=N3)=N2)oc1C` (stereo not shown) [Thiangazole, thiangazole], the activity against larvae (Lucilia cuprina) is reported as “very good activity”, the “growth inhibition of fungus” value (Rhizopus arrhizus) is reported as “inhibits the growth” and the “growth inhibition of fungus” value (Mucor hiemalis) is reported as “inhibits the growth”. For the same molecule, the “growth inhibition of fungus” value (Pythium debaryanum) was “inhibits the growth”, the “growth inhibition of fungus” value (Gibberella fujikuroi) was “inhibits the growth” and the “growth inhibition of fungus” value (Botrytis cinerea) was “inhibits the growth”. The “activity against Fasciola hepatica (liver flukes remaining)” value (Fasciola hepatica) was “good activity”, the “ovicidal/larvicidal activity (% reduction in the population)” value (Heliothis virescens) was “good activity (The good pesticidal activity of the compounds of formulae I and Ia according to the invention corresponds to a mortality of at least 50-60% of the mentioned pests)” and the “activity (reduction in the population or in feeding damage)” value [2] was “very good activity”. For the same molecule, the mortality at 400 ppm (Aphis craccivora) was at least 50%, the “activity (reduction in the population or in feeding damage)” value ([3]; 400 ppm) was “good activity (The good pesticidal activity of the compounds of formulae I and Ia according to the invention corresponds to a mortality of at least 50-60% of the mentioned pests)” and the activity at 400 ppm ([3]; Plutella xylostella, 72 h, read-out: % activity (reduction in the population or in feeding damage)) was over 80%. For the same molecule, the mortality at 100 ppm (Dermanyssus gallinae) was at least 50%, the “reduction of nematode infestation” value ([4]; 20 mg of active ingredient per kg of body weight) was “virtually complete reduction” and the “reduction in nematode infestation” value ([4]; stomach probe or intraruminal injection) was “sharp reduction in nematode infestation”. The “activity at lowest fully active concentration (LC 100)” value (Lucille sericata) was “full activity even at low concentrations”, the “reduction in cestode infestation” value [5] was “approximately 90%” and the MIC (Ustilago maydis) was 3.2 µg/mL (≈ 5.93 µM). The “inhibition of NADH oxidation” value [6] was “inhibits NADH oxidation” and the mortality at 400 ppm (Tetranychus urticae) was at least 50%.

From patent US5610038A, “Thiangazole, its preparation, compositions and use thereof” (Ciba-Geigy Corporation, priority 1990, dated 1997)
